We go through two compounds from patent US20070244190A1, “Neobritannilactone B and acetyl neobritannilactone B” (priority 2006, published 2007).

One may read the IC50 as the point on the concentration scale where inhibition reaches its midpoint.

Assay [1] has as its system AGS cells. Description: Cell viability, trypan blue exclusion, 24 h. In kind it is cell-based. The settings on record: mean ± SE, n=3, read-out: IC50, growth of human cancer cells. As for the experimental part:
(§1) Cell Culture and Chemicals. The COLO 205 and HT 29 cell lines were isolated from human colon adenocarcinoma (ATCC CCL-222 and HTB-38); human promyelocytic leukemia (HL-60) cells were obtained from American Type Culture Collection (Rockville, Md.). The human AGS gastric carcinoma cell lines (CCRC 60102) were obtained from the Food Industry Research and Development Institute (Hsinchu, Taiwan). Cell lines were grown at 37° C. in 5% CO2 dioxide atmosphere in RPMI for COLO 205, HT-29, and HL-60 cells and DMEM/F12 for AGS cells, all supplemented with 10% heat-inactivated fetal bovine serum (GIBCO BRL, Grand Island, N.Y.) (100 units/mL of penicillin, 100 μg/mL of streptomycin), and 2 mM L-glutamine (GIBCO BRL). Selected compounds were dissolved in dimethyl sulfoxide (DMSO). Propidium iodide was obtained from Sigma Chemical Co. (St. Louis, Mo.).
(§2) Determination of Cell Viability. Human cancer cells were treated either with DMSO (0.01%) or the selected compounds (5-100 μM). Cell viability was determined at 24 h based on trypan blue exclusion assay. The viability percentage was calculated based on the percentage of unstained cells. Suspensions of cells were diluted 1:1 with 0.5% trypan blue solution. Stained and unstained cells were counted in a hemocytometer.

Assay [2] deals with COLO 205 cells. Description: Cell viability, trypan blue exclusion, 24 h. The settings on record: COLO 205, 24 h, mean ± SE, n=3, read-out: IC50, growth of human cancer cells. In kind it is cell-based. The procedure: as §1, §2
The next assay relates to HL-60 cells. The assay can be described thus: Cell viability, trypan blue exclusion, 24 h. The settings on record: HL-60, 24 h, mean ± SE, n=3, read-out: IC50, growth of human cancer cells. The assay is classed as cell-based. As for the experimental part: as §1, §2
The test system of a further assay is HT-29 cells. The assay can be described thus: Cell viability, trypan blue exclusion, 24 h. The assay is classed as cell-based. The settings on record: HT-29, 24 h, mean ± SE, n=3, read-out: IC50, growth of human cancer cells. The procedure:
as §1, §2

Assay [3] relates to AGS cells. The assay can be described thus: Apoptosis (sub-G1) by flow cytometry. In kind it is cell-based, human. The settings on record: 24 h, mean ± SE. The procedure: as §1
(§3) Flow Cytometry. Human cancer cells (2×10^5) were cultured in 60-mm Petri dishes and incubated for 24 h. The apoptotic cells (sub-G1) in the selected compounds and treated cells were measured by flow cytometry analysis. Then cells were harvested, washed with PBS, resuspended in 200 μL of PBS, and fixed in 800 μL of iced 100% ethanol at −20° C. After being left to stand overnight, the cell pellets were collected by centrifugation, resuspended in 1 mL of hypotonic buffer (0.5% Triton X-100 in PBS and 0.5 μg/mL RNase), and incubated at 37° C. for 30 min. Then 1 mL of propidium iodide solution (50 μg/mL) was added and the mixture was allowed to stand on ice for 30 min. Fluorescence emitted from the propidium iodide-DNA complex was quantitated after excitation of the fluorescent dye by FACScan cytometry (Becton Dickinson, San Jose, Calif.).
(§4) The compounds isolated from Inula were tested for their effects on the apoptotic ratio in human cancer cells.
(In flow cytometry, cells or beads pass a laser one at a time.)

Assay [4] concerns COLO 205 cells. The assay can be described thus: Apoptosis (sub-G1) by flow cytometry. The assay is classed as cell-based, human. The settings on record: 24 h, mean ± SE. The procedure:
as §1, §3, §4

Assay [5] deals with human AGS gastric carcinoma cell lines. Description: Cell survival assay (Example 3), trypan blue exclusion. In kind it is cell-based. The settings on record: 24 h treatment, Example 3, FIG. 2, read-out: IC50, cell viability. The procedure:
Cell Survival Assay. The human AGS gastric carcinoma cell lines (CCRC 60102) were maintained as described in Section 8.2 above. For assays, cells (5×10^4) were plated in 35-mm Petri dishes. The next day, the medium was changed and NAB and ANAB were added. Control cells were treated with DMSO to a final concentration of 0.05% (v/v). At the end of incubation, cells were harvested for cell count using a hemocytometer.
To test the effects of NAB and ANAB on cell viability, human gastric carcinoma cells were treated with different concentrations of NAB and ANAB. After 24 h treatment, the number of live cells was determined by trypan blue exclusion assay. FIG. 2. Both compounds were potent inhibitors of cell viability.

Assay [6] deals with poly-(ADP-ribose) polymerase (PARP) in AGS cells. The assay can be described thus: Western blot of PARP cleavage. The assay is classed as cell-based, human. The settings on record: for PARP cleavage (85-kDa fragment): AGS cells treated for 24, FIG. 6A. The procedure: Western Blotting. The nuclear and cytosolic proteins were isolated from AGS cells after treatment with 60 μM for 0, 3, 6, 9, 12, 18, and 24 h. The total proteins were extracted via the addition of 200 μL of gold lysis buffer (50 mM Tris-HCl, pH 7.4; 1 mM NaF; 150 mM NaCl; 1 mM EGTA; 1 mM phenylmethanesulfonyl fluoride; 1% NP-40; and 10 μg/mL leupeptin) to the cell pellets on ice for 30 min, followed by centrifugation at 10,000 g for 30 min at 4° C. The cytosolic fraction (supernatant) proteins were measured by Bio-Rad protein assay (Bio-Rad Laboratories, Munich, Germany). The samples (50 μg of protein) were mixed with 5× sample buffer containing 0.3 M Tris-HCl (pH 6.8), 25% 2-mercaptoethanol, 12% sodium dodecyl sulfate (SDS), 25 mM EDTA, 20% glycerol, and 0.1% bromophenol blue. The mixtures were boiled at 100° C. for 5 min and were subjected to 12% SDS-polyacrylamide minigels at a constant current of 20 mA. Subsequently, electrophoresis was ordinarily carried out on SDS-polyacrylamide gels. For electrophoresis, proteins on the gel were electrotransferred onto an immobile membrane (PVDF; Millipore Corp., Bedford, Mass.) with transfer buffer composed of 25 mM Tris-HCl (pH 8.9), 192 mM glycine, and 20% methanol. The membranes were blocked with blocking solution containing 20 mM Tris-HCl and then immunoblotted with primary antibodies including, anti-Bcl-XL, anti-β-actin (Transduction Laboratory, Lexington, Ky.), anti-PARP (UBI, Inc., Lake Placid, N.Y.), at room temperature for 1 h. Detection was achieved by measuring the chemiluminescence of blotting agent (ECL, Amersham Corp., Arlington Heights, Ill.), after exposure of the filters to KODAK X-OMAT films.
Activation of caspase-3 leads to the cleavage of a number of proteins, one of which is poly-(ADP-ribose) polymerase (PARP). A hallmark of apoptosis is that PARP (116 kDa) is cleaved to produce an 85-kDa fragment. PARP cleavage was examined in cells treated with NAB or ANAB for 24.

On to `C=C1C(=O)O[C@H]2/C=C(\C)CC/C=C(\C)C[C@H](OC(C)=O)[C@@H]12` [Compound 4, acetyl neobritannilactone B], for which the IC50 in the assay on AGS cells [1] was 5.4 µM; in the assay on COLO 205 cells [2], 14.7 µM; with HL-60 cells it was 16.2 µM; in the assay with HT-29 cells it was 57 µM; in assay [5] it was 4.2 µM. In addition, the apoptotic ratio in the assay with AGS cells [3] (5 μM) is on record as 6.16 ± 1.17%; with AGS cells [3] (10 μM), 7.87 ± 3.03%; in the assay with AGS cells [3] (25 μM), 9.89 ± 4.44%; with AGS cells [3] (25 μM, listed as ANAB) it was 9.89%; with AGS cells [3] (50 μM) it was 13.64 ± 0.28%; in the assay with AGS cells [3] (100 μM), 43.11 ± 0.99%. For the same compound, the apoptotic ratio in the assay on COLO 205 cells [4] (COLO 205, 5 μM) was 15.47 ± 1.69%; in the assay with COLO 205 cells [4] (COLO 205, 10 μM), 34.72 ± 2.72%; with COLO 205 cells [4] (COLO 205, 25 μM) it was 76.87 ± 2.39%; in the assay with COLO 205 cells [4] (COLO 205, 25 μM, listed as ANAB) it was 76.87%; in the assay with COLO 205 cells [4] (COLO 205, 50 μM) it was 96.92 ± 0.20%; in the assay with COLO 205 cells [4] (COLO 205, 100 μM) it was 98.66 ± 0.10%. The “PARP cleavage over time” value in assay [6] (15 μM, time course, FIG. 6B) is “time-dependent proteolytic cleavage of PARP”. The “PARP cleavage (85-kDa fragment)” value in assay [6] is reported as “PARP proteolytic fragment was found”.
Consider `C=C1C(=O)OC2C=C(C)CCC=C(C)CC(O)C12` (stereo not drawn) [Compound 3, 4-hydroxy-3α,4,5,8,9,11α-hexahydro-6,10-dimethyl-3-methylene-cyclodeca[b]furan-2(3H)-one], for which the IC50 came out at 21.4 µM with AGS cells [1]; 14.3 µM in the assay on COLO 205 cells [2]; 27.4 µM in the assay on HL-60 cells; 56.1 µM in the assay with HT-29 cells; 7.6 µM in assay [5]. In addition, the apoptotic ratio was found to be 9.55 ± 3.05% in the assay with AGS cells [3] (5 μM); 8.66 ± 0.80% in the assay on AGS cells [3] (10 μM); 11.78 ± 1.40% in the assay on AGS cells [3] (25 μM); 11.78% in the assay with AGS cells [3] (25 μM, listed as NAB); 15.95 ± 1.12% with AGS cells [3] (50 μM); 19.22 ± 0.57% in the assay with AGS cells [3] (100 μM). Also, the apoptotic ratio came to 10.73 ± 2.31% in the assay on COLO 205 cells [4] (COLO 205, 5 μM); 14.12 ± 1.06% with COLO 205 cells [4] (COLO 205, 10 μM); 41.62 ± 6.34% with COLO 205 cells [4] (COLO 205, 25 μM); 41.62% with COLO 205 cells [4] (COLO 205, 25 μM, listed as NAB); 89.11 ± 1.47% in the assay on COLO 205 cells [4] (COLO 205, 50 μM); 96.81 ± 0.51% in the assay with COLO 205 cells [4] (COLO 205, 100 μM). In assay [6], the “PARP cleavage (85-kDa fragment)” value is listed as “PARP proteolytic fragment was found”.
